In PubChem BioAssay (NCI):
Several values for one entry are separate records, joined by “and”; a condition that tells them apart may be missing. Identical values can stand only once.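 Grown in 96-well plates, cells were treated for 48 hours with each compound at five concentrations. Insufficient inhibition: endpoint recorded as highest concentration tested. GI50 = concentration required for 50% inhibition of growth. Definition used: TGI = concentration required for complete inhibition of growth.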

What was measured:
Assay in all cases: growth of human tumour cells (NCI), 48 h
NCI-H460 lung = system: NCI-H460 lung
SNB-19 CNS = system: SNB-19 CNS
RXF-631 renal = system: RXF-631 renal
IGROV1 ovarian = system: IGROV1 ovarian
NCI-H522 lung = system: NCI-H522 lung
OVCAR-5 ovarian = system: OVCAR-5 ovarian
U251 CNS = system: U251 CNS
OVCAR-3 ovarian = system: OVCAR-3 ovarian
HOP-18 NSCLC = system: HOP-18 NSCLC
SW-620 colon = system: SW-620 colon
SK-OV-3 ovarian = system: SK-OV-3 ovarian
SNB-75 CNS = system: SNB-75 CNS
HCT-116 colon = system: HCT-116 colon
TK-10 renal = system: TK-10 renal
NCI-H23 lung = system: NCI-H23 lung
OVCAR-8 ovarian = system: OVCAR-8 ovarian
M14 melanoma = system: M14 melanoma
SR leukemia = system: SR leukemia
UO-31 renal = system: UO-31 renal
HOP-62 NSCLC = system: HOP-62 NSCLC
HT29 colon = system: HT29 colon
KM12 colon = system: KM12 colon
A549 NSCLC = system: A549 NSCLC
MALME-3M melanoma = system: MALME-3M melanoma
LXFL 529 NSCLC = system: LXFL 529 NSCLC
UACC-257 melanoma = system: UACC-257 melanoma
SF-539 CNS = system: SF-539 CNS
HCT-15 colon = system: HCT-15 colon
SN12C renal = system: SN12C renal
SNB-78 CNS = system: SNB-78 CNS
EKVX NSCLC = system: EKVX NSCLC
CCRF-CEM leukemia = system: CCRF-CEM leukemia
HOP-92 NSCLC = system: HOP-92 NSCLC
DMS 273 small cell lung = system: DMS 273 small cell lung
XF 498 CNS = system: XF 498 CNS
M19-MEL melanoma = system: M19-MEL melanoma
K-562 leukemia = system: K-562 leukemia
MOLT-4 leukemia = system: MOLT-4 leukemia
ACHN renal = system: ACHN renal
RXF 393 renal = system: RXF 393 renal
HL-60(TB) leukemia = system: HL-60(TB) leukemia
HCC-2998 colon = system: HCC-2998 colon
DLD-1 colon = system: DLD-1 colon
SK-MEL-5 melanoma = system: SK-MEL-5 melanoma
A498 renal = system: A498 renal
KM20L2 colon = system: KM20L2 colon
COLO 205 colon = system: COLO 205 colon
786-0 renal = system: 786-0 renal
LOX IMVI melanoma = system: LOX IMVI melanoma
SK-MEL-28 melanoma = system: SK-MEL-28 melanoma
CAKI-1 renal = system: CAKI-1 renal
SK-MEL-2 melanoma = system: SK-MEL-2 melanoma
NCI-H226 lung = system: NCI-H226 lung
OVCAR-4 ovarian = system: OVCAR-4 ovarian

SMILES: O=C(CCN1CCN(c2cccc(Cl)c2)CC1)N1CCc2c([nH]c3ccccc23)C1c1cccnc1 (stereo not drawn)
- TGI (NCI-H460 lung): 16.9 µM
- TGI (SNB-19 CNS): 26.9 µM
- GI50 (RXF-631 renal): 8.64 µM
- TGI (RXF-631 renal): > 100 µM
- GI50 (IGROV1 ovarian): 18.7 µM
- TGI (IGROV1 ovarian): > 100 µM
- GI50 (NCI-H522 lung): 4.85 µM
- TGI (NCI-H522 lung): 19.1 µM
- GI50 (OVCAR-5 ovarian): 5.75 µM
- TGI (OVCAR-5 ovarian): 23.3 µM
- GI50 (U251 CNS): 9.96 µM
- TGI (U251 CNS): 21.5 µM
- GI50 (OVCAR-3 ovarian): 7.67 µM
- TGI (OVCAR-3 ovarian): 8.77 µM and 20.1 µM
- TGI (HOP-18 NSCLC): 32.5 µM
- TGI (SW-620 colon): 23.8 µM
- GI50 (SK-OV-3 ovarian): 13.4 µM
- TGI (SK-OV-3 ovarian): 28.8 µM
- GI50 (SNB-75 CNS): 6.24 µM
- TGI (SNB-75 CNS): 17.1 µM
- GI50 (HCT-116 colon): 6.36 µM
- TGI (HCT-116 colon): 18.3 µM
- GI50 (TK-10 renal): 2.53 µM
- TGI (TK-10 renal): 10.9 µM
- GI50 (NCI-H23 lung): 11.2 µM
- TGI (NCI-H23 lung): 28 µM
- TGI (OVCAR-8 ovarian): 21.7 µM
- GI50 (M14 melanoma): 6.06 µM
- TGI (M14 melanoma): 9.22 µM and 19 µM
- GI50 (SR leukemia): 5.06 µM
- TGI (SR leukemia): 7.83 µM and 27 µM
- GI50 (UO-31 renal): 4.7 µM
- TGI (UO-31 renal): 16.2 µM
- TGI (HOP-62 NSCLC): 23.9 µM
- GI50 (HT29 colon): 4.13 µM
- TGI (HT29 colon): 16.4 µM
- GI50 (KM12 colon): 5.04 µM
- TGI (KM12 colon): 15.9 µM
- TGI (A549 NSCLC): 19 µM
- GI50 (MALME-3M melanoma): 14.9 µM
- TGI (MALME-3M melanoma): 36.8 µM
- GI50 (LXFL 529 NSCLC): 6.24 µM
- TGI (LXFL 529 NSCLC): 19.6 µM
- GI50 (UACC-257 melanoma): 6.43 µM
- TGI (UACC-257 melanoma): 21.3 µM
- TGI (SF-539 CNS): 31.2 µM
- GI50 (HCT-15 colon): 5.18 µM
- TGI (HCT-15 colon): 18 µM
- GI50 (SN12C renal): 7.59 µM
- TGI (SN12C renal): 21.1 µM
- TGI (SNB-78 CNS): 9.97 µM
- TGI (EKVX NSCLC): 26.3 µM
- GI50 (CCRF-CEM leukemia): 6.62 µM
- TGI (CCRF-CEM leukemia): > 100 µM
- GI50 (HOP-92 NSCLC): 12.3 µM
- TGI (HOP-92 NSCLC): 9.52 µM and 35.7 µM
- GI50 (DMS 273 small cell lung): 6.6 µM
- TGI (DMS 273 small cell lung): 19.1 µM
- TGI (XF 498 CNS): 9.57 µM
- TGI (M19-MEL melanoma): 26.4 µM
- GI50 (K-562 leukemia): 3.99 µM
- TGI (K-562 leukemia): 18.6 µM
- GI50 (MOLT-4 leukemia): 4.65 µM
- TGI (MOLT-4 leukemia): 26.6 µM
- GI50 (ACHN renal): 6.34 µM
- TGI (ACHN renal): 21.6 µM
- GI50 (RXF 393 renal): 6.31 µM
- TGI (RXF 393 renal): 21 µM
- GI50 (HL-60(TB) leukemia): 3.19 µM
- TGI (HL-60(TB) leukemia): 5.53 µM and 11.2 µM
- GI50 (HCC-2998 colon): 2.91 µM
- TGI (HCC-2998 colon): 4.04 µM and 8.05 µM
- GI50 (DLD-1 colon): 8.09 µM
- TGI (DLD-1 colon): 25.4 µM
- GI50 (SK-MEL-5 melanoma): 7.72 µM
- TGI (SK-MEL-5 melanoma): 21.9 µM
- GI50 (A498 renal): 5.56 µM
- TGI (A498 renal): 20.2 µM
- GI50 (KM20L2 colon): 4.71 µM
- TGI (KM20L2 colon): 20.1 µM
- GI50 (COLO 205 colon): 4.83 µM
- TGI (COLO 205 colon): 15.6 µM
- GI50 (786-0 renal): 5.96 µM
- TGI (786-0 renal): 18.7 µM
- GI50 (LOX IMVI melanoma): 6.5 µM
- TGI (LOX IMVI melanoma): 20.5 µM
- TGI (SK-MEL-28 melanoma): 26.9 µM
- TGI (CAKI-1 renal): 14.3 µM
- GI50 (SK-MEL-2 melanoma): 5.24 µM
- TGI (SK-MEL-2 melanoma): 18.2 µM
- TGI (NCI-H226 lung): 49.9 µM
- GI50 (OVCAR-4 ovarian): 4.23 µM
- TGI (OVCAR-4 ovarian): 18.4 µM
